The results in this text go back to ChEMBL document CHEMBL1201862, “PubChem BioAssay data set” (2004).

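1) Cells in 96-well plates. 2) Compound, 48 h, 5 concentrations. 3) Linear interpolation between surrounding doses. 4) Unreached endpoint = highest concentration. Abbreviation: GI50, concentration required for 50% inhibition of growth.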 Activity calls are given as the source filed them. No stated cut-off is given here; in the data, active = GI50 up to about 1.1 µM and inactive = higher. Where only a bound is given, the exact number is not on record here.

Test systems include LOX IMVI; DLD-1; U-251; A498; EKVX; OVCAR-5; HOP-62; NCI-H23; CCRF-CEM; UACC-257; SR; RXF 393; IGROV-1; T47D; BT-549; Hs-578T; NCI/ADR-RES; MCF7; MDA-MB-231; MDA-N.
Common to all, as to assay: NCI tumour cell line growth inhibition, 48 h

Consider `O=C(O)CCC(=O)OCN1C(=O)C2C3C=CC(C2C1=O)C1C2C(=O)N(COC(=O)CCC(=O)O)C(=O)C2C31` (stereo not drawn), for which the GI50 in the assay with LOX IMVI was > 45.5 µM (inactive); in the assay with DLD-1, > 57.7 µM (inactive); with U-251, > 65.8 µM (inactive); in the assay on A498 it was > 100 µM (inactive); with EKVX it was > 100 µM (inactive); in the assay with OVCAR-5 it was > 100 µM (inactive). The GI50 in the assay on HOP-62 is > 100 µM (inactive); in the assay on NCI-H23, > 100 µM (inactive); in the assay with CCRF-CEM, 34 µM (inactive); in the assay with UACC-257, > 100 µM (inactive); in the assay on SR it was 30.8 µM (inactive); in the assay on RXF 393, > 100 µM (inactive). Also, in the assay on IGROV-1, the GI50 is > 100 µM (inactive).

Consider `Cc1cc([N+](=O)[O-])ccc1Sc1c2ccccc2nc2ccccc12`, for which the GI50 in the assay with LOX IMVI was 20 µM (inactive); in the assay with DLD-1, 25.4 µM (inactive); in the assay with U-251 it was 28.5 µM (inactive); with A498 it was > 100 µM (inactive); in the assay with EKVX, 39 µM (inactive); with OVCAR-5, > 100 µM (inactive). For the same compound, the GI50 with HOP-62 is > 100 µM (inactive); with NCI-H23, 33 µM (inactive); with CCRF-CEM, 21.8 µM (inactive); with UACC-257 it was 29.4 µM (inactive); with SR it was 27.7 µM (inactive); in the assay on RXF 393 it was 57.5 µM (inactive). For the same compound, the GI50 with IGROV-1 is 28.4 µM (inactive).

Consider `COc1ccc(C(C)Nc2cc(OC)c(OC)c(OC)c2)cc1` (stereo not drawn), for which the GI50 with LOX IMVI was 10.9 µM (inactive); with DLD-1 it was 5.81 µM (inactive); with U-251, 2.75 µM (inactive); with A498, 4.45 µM (inactive); in the assay with EKVX, > 24.9 µM (inactive); with OVCAR-5, 29.5 µM (inactive). In addition, the GI50 was 2.88 µM (inactive) in the assay on HOP-62; 3.72 µM (inactive) in the assay with NCI-H23; 3.29 µM (inactive) in the assay on CCRF-CEM; 3.27 µM (inactive) in the assay on UACC-257; 3.1 µM (inactive) with SR; 3.27 µM (inactive) in the assay with RXF 393. Moreover, in the assay on IGROV-1, the GI50 is 7.13 µM (inactive).

As for `Cc1cccc(NC(=O)c2cccc([N+](=O)[O-])c2O)c1C`, the GI50 in the assay with T47D was 24.9 µM (inactive); with BT-549, 30.2 µM (inactive); in the assay with Hs-578T it was 43.6 µM (inactive); with NCI/ADR-RES, 16.5 µM (inactive); in the assay on LOX IMVI it was 23 µM (inactive); in the assay on DLD-1, 27.3 µM (inactive). For the same compound, the GI50 was 25.3 µM (inactive) in the assay with U-251; 28.5 µM (inactive) in the assay on A498; 26.7 µM (inactive) in the assay with EKVX; 30.6 µM (inactive) in the assay with OVCAR-5; 17.8 µM (inactive) with HOP-62; 17.5 µM (inactive) in the assay with NCI-H23. Also, the GI50 in the assay on CCRF-CEM was 14.9 µM (inactive); in the assay on UACC-257 it was 24.9 µM (inactive); in the assay with SR it was 20.1 µM (inactive); in the assay with MCF7 it was 27.4 µM (inactive); with RXF 393 it was 12.6 µM (inactive); with IGROV-1, 26.7 µM (inactive). Besides, the GI50 in the assay with MDA-MB-231 is 37.9 µM (inactive).

As for `CN(C)CC1CC/C(=C\c2ccc3c(c2)OCO3)C1=O` (stereo not drawn), the GI50 in the assay with BT-549 was 11.2 µM (inactive); with Hs-578T, 4.38 µM (inactive); in the assay on NCI/ADR-RES it was 2.79 µM (inactive); in the assay with LOX IMVI, 1.95 µM (inactive); with DLD-1, 6.84 µM (inactive); in the assay on U-251, 18.3 µM (inactive). The GI50 was 19 µM (inactive) in the assay on A498; 18.9 µM (inactive) in the assay on EKVX; 18 µM (inactive) in the assay with OVCAR-5; > 51.6 µM (inactive) in the assay with HOP-62; 9.62 µM (inactive) in the assay on NCI-H23; 2.79 µM (inactive) with CCRF-CEM. Besides, the GI50 in the assay on UACC-257 was 8.97 µM (inactive); in the assay on MDA-N, 4.42 µM (inactive); with SR it was 2.82 µM (inactive); in the assay with MCF7 it was 3.96 µM (inactive); with RXF 393, 15.7 µM (inactive); with IGROV-1 it was 9.75 µM (inactive). In the assay on MDA-MB-231, the GI50 was 2.38 µM (inactive).

Turning to `O=C1OCC2C1C1c3ccccc3C(O)c3ccccc3C21` (stereo not drawn), the GI50 in the assay with LOX IMVI, in the assay with DLD-1, with U-251, with A498, with EKVX and with OVCAR-5 was > 100 µM (inactive) throughout. For the same compound, the GI50 in the assay on HOP-62, in the assay with NCI-H23, with CCRF-CEM, in the assay with UACC-257, in the assay on SR and with RXF 393 was > 100 µM (inactive) throughout. Moreover, in the assay on IGROV-1, the GI50 is > 100 µM (inactive).

Turning to `CC1(C)OC2OC(/C=C/[N+](=O)[O-])C3OC(C)(C)OC3C2O1` (stereo not drawn), the GI50 is 7.5 µM (inactive) in the assay with LOX IMVI; 1.61 µM (inactive) with DLD-1; 17.3 µM (inactive) in the assay with U-251; 20.5 µM (inactive) with A498; 20.1 µM (inactive) in the assay with EKVX; 23.2 µM (inactive) with OVCAR-5. The GI50 in the assay with HOP-62 is 20.7 µM (inactive); in the assay on NCI-H23 it was 18.7 µM (inactive); in the assay with CCRF-CEM, 2.94 µM (inactive); with UACC-257, 7.52 µM (inactive); with SR, 6.7 µM (inactive); with RXF 393, 1.99 µM (inactive). Also, the GI50 with IGROV-1 is 34.9 µM (inactive).

For the compound `COc1ccc(C(=O)O)c(Cc2ccc3ccccc3c2)c1`, the GI50 with LOX IMVI, with DLD-1, with U-251, in the assay with A498, in the assay with EKVX and in the assay on OVCAR-5 was > 100 µM (inactive) each time. Also, the GI50 in the assay on HOP-62, in the assay with NCI-H23, in the assay with CCRF-CEM, with UACC-257, in the assay on SR and in the assay with RXF 393 was > 100 µM (inactive) in each case. Moreover, in the assay with IGROV-1, the GI50 was > 100 µM (inactive).

`Cc1ccc2oc(=O)c3c(O)c4cccc(OC5OC(C)C6O[C@@H](c7ccccc7)OC6C5OC5OC(C)C(O)C(O)C5O)c4c4oc(=O)c1c2c34` (stereo partly drawn): the GI50 was 0.0585 µM (active) in the assay on T47D; 0.119 µM (active) with Hs-578T; 3.66 µM (inactive) with NCI/ADR-RES; 0.156 µM (active) with DLD-1; 0.0535 µM (active) with U-251; 0.0274 µM (active) in the assay on A498. The GI50 in the assay on EKVX was 0.461 µM (active); in the assay with OVCAR-5 it was 0.162 µM (active); in the assay with HOP-62, 0.0452 µM (active); with NCI-H23, 0.0492 µM (active); with CCRF-CEM, 0.0182 µM (active); with MDA-N, 0.121 µM (active). For the same compound, the GI50 in the assay with SR is < 0.011 µM (active); in the assay with MCF7, 0.0324 µM (active); in the assay on RXF 393, 0.187 µM (active); with IGROV-1, 0.0264 µM (active); in the assay with MDA-MB-231, 0.197 µM (active).

Consider `COC1=C(C(=O)OC(C)(C)C)C23CCCCC2(C(C(=O)OC(C)(C)C)=C(OC)C3C(=O)OC(C)(C)C)C1C(=O)OC(C)(C)C` (stereo not drawn), for which the GI50 in the assay on LOX IMVI is 34.4 µM (inactive); with DLD-1, 39.9 µM (inactive); in the assay with U-251, 49.9 µM (inactive); in the assay on A498, > 100 µM (inactive); in the assay on EKVX, 50.7 µM (inactive); in the assay with OVCAR-5 it was > 100 µM (inactive). Further, the GI50 with HOP-62 is > 100 µM (inactive); with NCI-H23, 21.5 µM (inactive); in the assay on CCRF-CEM, 27.9 µM (inactive); in the assay on UACC-257, 6.1 µM (inactive); in the assay on SR it was 19.6 µM (inactive); with RXF 393, 27.6 µM (inactive). In addition, the GI50 with IGROV-1 is 49.2 µM (inactive).

As for `Nc1nnc(NC(=O)C2=NS(=O)(=O)c3cc(S(N)(=O)=O)c(Cl)cc3N2)[nH]1`, the GI50 in the assay on LOX IMVI, in the assay on DLD-1, with U-251, with A498, in the assay on EKVX and with OVCAR-5 was > 100 µM (inactive) throughout. Further, the GI50 in the assay with HOP-62, in the assay on NCI-H23, in the assay with CCRF-CEM, in the assay on UACC-257, with SR and in the assay with RXF 393 was > 100 µM (inactive) throughout. Besides, in the assay on IGROV-1, the GI50 is > 100 µM (inactive).

In the case of `COc1ccc(Nc2nc3c(N)cc(C(F)(F)F)cc3nc2-c2ccccc2)cc1OC`, the GI50 with LOX IMVI is 40.6 µM (inactive); with DLD-1, 22.7 µM (inactive); with U-251, 11.3 µM (inactive); in the assay with A498, 31.8 µM (inactive); in the assay on EKVX, 18.5 µM (inactive); in the assay on OVCAR-5, 64.7 µM (inactive). For the same compound, the GI50 in the assay with HOP-62 was 24.9 µM (inactive); in the assay with NCI-H23, 32.9 µM (inactive); in the assay with CCRF-CEM, > 100 µM (inactive); with UACC-257, 27.2 µM (inactive); with SR, 92.7 µM (inactive); in the assay with RXF 393, 25.7 µM (inactive). Also, the GI50 with IGROV-1 is 22.3 µM (inactive).

As to `COc1cccc(N2C(=O)c3c(c4[nH]c5ccccc5c4c4ccc(C(C)(C)C)cc34)C2=O)c1`, the GI50 in the assay on LOX IMVI, in the assay with DLD-1, with U-251, with A498, in the assay on EKVX and with OVCAR-5 was > 100 µM (inactive) each time. The GI50 in the assay on HOP-62, in the assay on NCI-H23, in the assay on CCRF-CEM, with UACC-257, in the assay on SR and with RXF 393 was > 100 µM (inactive) in each case. Further, the GI50 in the assay with IGROV-1 was > 100 µM (inactive).

Regarding `COc1c(C)c2c(c3c1c(=O)c1ccccc1n3C)C=CC(C)(C)O2`, the GI50 with LOX IMVI was 15.2 µM (inactive); with DLD-1 it was 34.5 µM (inactive); in the assay on U-251, 21.8 µM (inactive); with A498, 32.7 µM (inactive); in the assay with EKVX, 47.1 µM (inactive); in the assay with OVCAR-5 it was 29.2 µM (inactive). Also, the GI50 with HOP-62 is 27.2 µM (inactive); with NCI-H23, 27.1 µM (inactive); with CCRF-CEM, 21.4 µM (inactive); in the assay on UACC-257 it was 28.9 µM (inactive); with SR, 12.5 µM (inactive); in the assay on RXF 393, 51.5 µM (inactive). Further, the GI50 with IGROV-1 was 30.3 µM (inactive).
